Values of other authors, collected in patent US11135271B2, “Glucagon derivatives with improved stability” (HANMI PHARM. CO., LTD., priority 2014, dated 2021).

Columns and labels:
[1] = when taken for 1 year
[2] = according to reports

Q: With `CCCCCCCCCCC[C@@H](C[C@@H]1OC(=O)[C@H]1CCCCCC)OC(=O)[C@H](CC(C)C)NC=O` [Orlistat] as the compound, how does the weight loss [1] read?
A: about 4 kg

Q: With `Cc1c(C(=O)NN2CCCCC2)nn(-c2ccc(Cl)cc2Cl)c1-c1ccc(Cl)cc1` [Rimonabant] as the compound, how does the side-effect [2] read?
A: central nervous system disorder

Q: Which side-effect [2] does the source give for `CC(C)CC(N(C)C)C1(c2ccc(Cl)cc2)CCC1` (stereo not drawn) [Sibutramine] here?
A: cardiovascular side-effects
